Reference: patent publication US20080287532A1, “OXACYCLOPENTENE-2 DERIVATIVES” (priority 2007, published 2008)
Read-outs that look alike come from different tables or passages of the source.

Key:
[1] = tested on: cellular immune response (T-cells response) to SRBC; assay: Delayed Type Hypersensitivity test (DTH), foot pad edema after SRBC challenge; format: in vivo, mice
Method: The method of Lagrange et al. was used. Mice were sensitized intravenously (iv) with 10^5 SRBC in saline. After 4 days, the mice were given eliciting dose of the antigen: 10^8 SRBS in 20 mcl of sterile saline into right hind paw, left hind paw was injected with 20 mcl of sterile saline. In 24 hours after challenge, the foot pad edema volume was measured using a caliper. The difference in volume (mcl) between the right paw (antigen-injected) and left paw (saline-injected) is calculated (Δ) and used as edema volume.

[2] = tested on: anti-SRBC IgM secreting plasma cells (antibody-forming cells, AFC); format: in vivo; conditions: for AFC number increase, % of control: mice immunized with SRBC
Text: Humoral-mediated immune response is routinely measured using the antibody-forming cell (AFC) assay. Primarily used for evaluating humoral immunity, this assay, in fact, evaluates overall immune competence including T- and B-cell function, antigen processing and presentation. Sheep Red Blood Cells (SRBC) are the most common T-dependent antigen used for this assay.
Primary IgM response after SRBC administration was quantitatively estimated using a modified hemolytic plaque-forming cell assay
Since SRBC are T-dependent antigen, a normal AFC response depends on multiple factors: antigen processing and presentation actuated by macrophages, appropriate T-cell signalling, B-cells differentiation, and affinity maturation of antibodies in plasma cells.
(§1) For induction of a primary humoral PFC response, C57BL/6J mice were immunized intraperitoneally with 0.1 ml of a 5% suspension of SRBC, containing 1×10^8 cells. On day 5 after immunization animals were sacrificed under deep ether anesthesia, spleens were dissected out and minced through a stainless steel mesh. Individual spleen cell suspensions were washed three times with Hank's BSS, nucleated cells number was determined with a haemocytometer, viability was assessed by exclusion of trypan blue and adjusted to 1×10^7 viable cells per ml in Medium 199 containing Earle's salts and L-glutamine.
(§2) For the PFC assay, suspensions containing 1×10^6 spleen cells, 1×10^9 SRBCs and guinea pig serum (diluted 1:10, a source of complement), were introduced into a Cunningham chambers (100 μl volume) and incubated for 1 h at 37° C. The number of hemolytic plaques, produced by anti-SRBC IgM secreting plasma cells, was counted using a light microscope, and the number of PFC determined for each mice was expressed per 1×10^6 spleen cells and per whole spleen.

[3] = tested on: antibody production (AFC) after Adriamycin immunosuppression; assay: Adriamycin-induced immunosuppression model, antibody (AFC) response to SRBC; format: in vivo, mice
Method: as §1, §2
Immunosupression in mice was induced by parentreral administration of Adriamycin or Cyclophosphamide. Mice were injected with Adriamycin intraperitoneally in a dose of 5 mg/kg one day before the immunization with SRBC. Cyclophosphamide was used in a dose of 100 mg/kg 24 hours before the antigen challenge with SRBC.
Even in this extreme situation, administration of 2-methyl-3-ethoxycarbonyl-4-(2-methoxyphenyl)-5-methoxy-(1-oxacyclopentene-2, example 6) in dose 2.5 mg/kg produces a nearly 3 folds increase in antibody levels. […] (See FIG. 8).

[4] = Administered dose related to LD50; format: in vivo; conditions: Levamisol dose 2.5 mg/kg
[5] = dose 10 mg/kg, mice sensitized with SRBC

SMILES | DTH foot pad edema, % of control [1, 5] [%] | AFC number increase, % of control ([2]; dose 2.5 mg/kg) [%] | AFC number increase, % of control ([2]; dose 5 mg/kg) [%] | AFC number increase, % of control ([2]; dose 10 mg/kg) [%] | other results
CCCCCCCCCCCC1C(C(=O)OCC)=C(C)OC1OC (stereo not shown) [Example 4] | 240 | 253 | 330 | 282 | 
COC1OC(C)=C(C(=O)O)C1CC(C)C (stereo not shown) [Example 9] | 360 | 230 | 320 | 360 | 
COc1cccc2c1C(=O)c1c(O)c3c(c(O)c1C2=O)C[C@@](O)(C(=O)CO)C[C@@H]3O[C@H]1C[C@H](N)[C@H](O)[C@H](C)O1 [Adriamycin] |  |  |  |  | Total number of AFC, % of initial values ([3]; after Adriamycin administration (5 mg/kg i.p.)): 1-2%
CCOC(=O)C1=C(C)OC(OC)C1c1cccc(OC)c1 (stereo not shown) [Example 14] | 200 | 135 | 187 | 254 | 
CCCCCCCCCC1C(C(=O)OCC)=C(C)OC1OC (stereo not shown) [Example 3] | 250 | 225 | 289 | 326 | 
CCCCCC1C(C(=O)OCC)=C(C)OC1OC (stereo not shown) [Example 2] | 220 | 360 | 331 | 330 | 
CCOC(=O)C1=C(C)OC(OC)C1c1ccc(OC)cc1 (stereo not shown) [Example 15] | 160 | 291 | 312 | 267 | 
CCOC(=O)C1=C(C)OC(OC)C1c1cccnc1 (stereo not shown) [Example 13] | 180 | 168 | 201 | 191 | 
CCCCC1C(C(=O)OCC)=C(C)OC1OC (stereo not shown) [Example 12] | 230 | 251 | 239 | 291 | 
CCOC(=O)C1=C(C(Br)Br)OC(OC)C1c1ccccc1 (stereo not shown) [Example 8] | 260 | 188 | 276 | 271 | 
COC1OC(C)=C(C(=O)[O-])C1CC(C)C.[Li+] (stereo not shown) [Example 10] | 360 | 290 | 320 | 470 | 
CCOC(=O)C1=C(C)OC(OC)C1c1ccc(Cl)cc1Cl (stereo not shown) [Example 7] | 230 | 269 | 302 | 358 | 
CCOC(=O)C1=C(C)OC(OC)C1c1ccccc1OC (stereo not shown) [Example 6] | 190 | 260 | 229 | 440 | Increase in antibody levels ([3]; dose 2.5 mg/kg, Adriamycin 5 mg/kg i.p. one day before SRBC immunization): ~3 folds
CCOC(=O)C1=C(CC)OC(OC)C1c1ccc(C)cc1C (stereo not shown) [Example 16] | 140 | 165 | 192 | 217 | 
c1ccc([C@H]2CN3CCSC3=N2)cc1 [Levamisol, reference compound] |  | 121 |  |  | DTH foot pad edema, % of control ([1]; Levamisol positive control, dose 2.5 mg/kg): 240%; Cellular immune response increase ([1]; after Levamisol administration): 240%; Increase in antibody formation ([2]; Levamisol positive reference, dose 2.5 mg/kg): 20%; Toxic effects (AFC not determined at higher doses) ([2]; mouse, in vivo): ND (toxic effects); Administered dose as % of LD50 [4]: 10 % of LD50; Antibody response in Adriamycin immunosuppression model ([3]; Adriamycin-induced immunosuppression): no antibody response
CCOC(=O)C1=C(C)OC(OC)C1CC(C)C (stereo not shown) [Example 1] | 300 | 209 | 275 | 453 | 
CCCCCCC1C(C(=O)OCC)=C(C)OC1OC (stereo not shown) [Example 11] | 210 | 245 | 241 | 287 | 
CCOC(=O)C1=C(C)OC(OC)C1c1ccccc1 (stereo not shown) [Example 5] | 200 | 202 | 324 | 259 | 
